Assay results as given in US3989835A, “Method of using 6-substituted amino phenyl-2,3,5,6-tetra-hydro[2,1-b]thiazoles for controlling gastrointestinal nematodes” (American Cyanamid Company, priority 1974, dated 1976).
Where a name gives a salt, the structure may show the parent alone. Read-outs that look alike come from different tables or passages of the source.

Columns and labels:
Nematospiroides dubius = assay: Anthelmintic efficacy against N. dubius in mice, single oral dose; assay type: in vivo, Nematospiroides dubius (in albino female mice); details: Heligmosomoides polygyrus, po; for inhibition in vivo at 40 mg/kg: single oral dose 40 mg./Kg.; for inhibition in vivo at 60 mg/kg: single oral dose 60 mg./Kg.; for inhibition in vivo at 10 mg/kg: single oral dose 10 mg./Kg.; for inhibition in vivo at 2 mg/kg: single oral dose 2.0 mg./Kg.; for inhibition in vivo at 5 mg/kg: single oral dose 5.0 mg./Kg.; for inhibition in vivo at 1.25 mg/kg: single oral dose 1.25 mg./Kg.; for inhibition in vivo at 20 mg/kg: single oral dose 20 mg./Kg.
Experimental: Albino female mice are each inoculated with about 20 infectious larvae of Nematospiroides dubius. This nematode is a representative of the economical important trichostrongylis worms of ruminants and other hosts, and of nematodes in general. Twenty-two days after inoculation, groups of four randomly selected mice containing adult N. dubius are given single oral doses of test compounds dissolved or suspended in 0.4 ml. of water per 20 gram mouse. At 26 or 27 days after inoculation, treated mice and in each test four randomly selected groups of untreated mice are necropsied. The number of worms in the small intestine of each mouse are determined by microscopic examination. Average worm numbers for each treated group and for the untreated controls are computed and the percent efficacy determined by the customary formula:
(Average Worms in Control - Average Worms in Treated)/(Average Worms in Control) X 100.

in vivo = details: for LD50: mouse, in vivo, po; for Approx. LD50 /ED50: chemotherapeutic index, mouse oral, N. dubius; for Dead/Total: mice
Text: Data on the acute oral toxicity to mice of various single oral doses of the above compounds and several analogs were obtained by conventional procedures, (Table IX hereinafter).

[1] = molar-adjusted, read-out: Percent Nematospiroides Activity
[2] = LD50, mice, adjusted to molar equivalents of tetramisole free base
[3] = continuation of Table X (R1/R4 disubstituted), read-out: ED50
[4] = mouse oral, Table IX, read-out: Approx. ED50 vs. N. dubius
[5] = Approx. LD50, mouse oral, Table IX
[6] = as Base, single oral dose, mice, > indicates inactive at dose shown, read-out: Approx. ED50

SMILES	LD50 (in vivo; [2])	ED50 (Nematospiroides dubius; [4])	LD50 (in vivo; [5])	inhibition in vivo at 10 mg/kg (Nematospiroides dubius; [1])	ED50 (Nematospiroides dubius; [6])	inhibition in vivo at 5 mg/kg (Nematospiroides dubius; [1])	also measured
CC(C)N(C)c1cccc(C2CN3CCSC3=N2)c1 (racemic) [CH3 N--CH(CH3)2, 6-[m-(isopropylmethylamino)phenyl]-2,3,5,6-tetrahydroimidazo[2,1-b]thiazol]	40 to 60 mg/kg	–	–	–	–	–	inhibition in vivo at 40 mg/kg (Nematospiroides dubius; [1]): 78%; inhibition in vivo at 60 mg/kg (Nematospiroides dubius; [1]): 88%
CC(=O)Nc1ccc(Br)c(C2CN3CCSC3=N2)c1 (racemic) [R1 =COCH3 R4 =Br]	–	30 mg/kg	> 100 mg/kg	–	–	–	ED50 (Nematospiroides dubius; [3]): 30 mg/kg
Nc1ccc(Br)c(C2CN3CCSC3=N2)c1 (racemic) [R1 =H R4 =Br, dl-6-(5-amino-2-bromophenyl)-2,3,5,6-tetrahydroimidazo[2,1-b]thiazole, dihydrochloride]	~50 mg/kg	5 mg/kg	40 mg/kg	100%	–	–	ED50 (Nematospiroides dubius; [3]): 5 mg/kg; inhibition in vivo at 4 mg/kg (Nematospiroides dubius; single oral dose 4.0 mg./Kg., molar-adjusted, read-out: Percent Nematospiroides Activity): 43%; Approx. LD50 /ED50 (in vivo; Table IX): 8; Dead/Total (in vivo; single oral dose 20 Mg./Kg.): 0/6; Dead/Total (in vivo; single oral dose 40 Mg./Kg.): 2/6; Dead/Total (in vivo; single oral dose 80 Mg./Kg.): 6/6
Nc1ccccc1C1CN2CCSC2=N1 (racemic) [dl 2HCl NH2 ortho, reference compound]	–	–	–	–	> 100 mg/kg	–	–
S=C=Nc1cccc(C2CN3CCSC3=N2)c1 (racemic) [dl Base N=C=S meta, reference compound]	–	–	–	–	–	–	ED50 (Nematospiroides dubius; read-out: Approx. ED50): 20 mg/kg
COc1cccc(C2CN3CCSC3=N2)c1 (racemic) [dl HBr OCH3 meta, reference compound]	–	–	–	–	> 10 mg/kg	–	–
Cc1cccc(C2CN3CCSC3=N2)c1 (racemic) [dl HCl CH3 meta, reference compound]	–	–	–	–	> 10 mg/kg	–	–
O=[N+]([O-])c1cccc(C2CN3CCSC3=N2)c1 (racemic) [dl HCl NO2 meta, dl-6-(m-nitrophenyl)-2,3,5,6-tetrahydroimidazo[2,1-b]thiazole hydrochloride, reference compound]	–	–	–	–	15 mg/kg	–	–
O=[N+]([O-])c1ccccc1C1CN2CCSC2=N1 (racemic) [dl HCl NO2 ortho, reference compound]	–	–	–	–	> 100 mg/kg	–	–
O=[N+]([O-])c1cccc(C2CN3C=CSC3=N2)c1 (racemic) [dl HClO4 NO2 * meta, reference compound]	–	–	–	–	25 mg/kg	–	–
Oc1cccc(C2CN3CCSC3=N2)c1 (racemic) [dl OH meta, reference compound]	–	–	–	–	> 10 mg/kg	–	–
CCC(=O)Nc1cccc(C2CN3CCSC3=N2)c1 (racemic) [m-NH--CO--C2 H5 dl]	30 to 40 mg/kg	2 mg/kg	< 40 mg/kg	100%	2 mg/kg	100%	inhibition in vivo at 2 mg/kg (Nematospiroides dubius; [1]): 76%; Approx. LD50 /ED50 (in vivo; Table IX): 20; Dead/Total (in vivo; single oral dose 40 Mg./Kg.): 4/5; Dead/Total (in vivo; single oral dose 60 Mg./Kg.): 4/6; Dead/Total (in vivo; single oral dose 80 Mg./Kg.): 5/5; Dead/Total (in vivo; single oral dose 100 Mg./Kg.): 6/6
CCCC(=O)Nc1cccc(C2CN3CCSC3=N2)c1 (racemic) [m-NH--CO--C3 H7n dl]	30 to 40 mg/kg	2 mg/kg	40 mg/kg	100%	2 mg/kg	99%	inhibition in vivo at 1.25 mg/kg (Nematospiroides dubius; [1]): 43%; inhibition in vivo at 2 mg/kg (Nematospiroides dubius; [1]): 58%; Approx. LD50 /ED50 (in vivo; Table IX): 20; Dead/Total (in vivo; single oral dose 40 Mg./Kg.): 3/5; Dead/Total (in vivo; single oral dose 60 Mg./Kg.): 4/5; Dead/Total (in vivo; single oral dose 80 Mg./Kg.): 4/5; Dead/Total (in vivo; single oral dose 100 Mg./Kg.): 5/5
CC(C)(C)C(=O)Nc1cccc(C2CN3CCSC3=N2)c1 (racemic) [m-NH--CO--C(CH3)3 dl]	~100 mg/kg	3 mg/kg	100 mg/kg	88%	3 mg/kg	75%	inhibition in vivo at 20 mg/kg (Nematospiroides dubius; [1]): 100%; Approx. LD50 /ED50 (in vivo; Table IX): 33; Dead/Total (in vivo; single oral dose 50 Mg./Kg.): 0/6; Dead/Total (in vivo; single oral dose 100 Mg./Kg.): 2/6; Dead/Total (in vivo; single oral dose 200 Mg./Kg.): 5/6
O=C(Nc1cccc(C2CN3CCSC3=N2)c1)c1ccccc1 (racemic) [m-NH-CO dl]	~60 mg/kg	1 mg/kg	60 mg/kg	100%	1 mg/kg	100%	inhibition in vivo at 1.25 mg/kg (Nematospiroides dubius; [1]): 67%; inhibition in vivo at 2 mg/kg (Nematospiroides dubius; [1]): 94%; inhibition in vivo at 20 mg/kg (Nematospiroides dubius; [1]): 100%; Approx. LD50 /ED50 (in vivo; Table IX): 60; Dead/Total (in vivo; single oral dose 40 Mg./Kg.): 0/6; Dead/Total (in vivo; single oral dose 60 Mg./Kg.): 3/6; Dead/Total (in vivo; single oral dose 80 Mg./Kg.): 4/6; Dead/Total (in vivo; single oral dose 120 Mg./Kg.): 5/6
CC(C)(C)C(=O)Nc1cccc(C2CN3C=CSC3=N2)c1 (stereo not shown) [5,6-dihydro HN-CO-C(CH3)3, 3'-(5,6-dihydroimidazo[2,1-b]thiazol-6-yl)pivalanilide]	–	–	–	80%	7.5 mg/kg	35%	–
CC(C)C(=O)Nc1cccc(C2CN3C=CSC3=N2)c1 (stereo not shown) [5,6-dihydro HN-CO-CH(CH3)2, 3'(5,6-dihydroimidazo[2,1-b]thiazol-6-yl)isobutyranilide]	–	–	–	68%	7.5 mg/kg	32%	–
CC(C)N(C=O)c1cccc(C2CN3CCSC3=N2)c1 (stereo not shown) [(CH3)2 CH--N--CHO, N-isopropyl-3'-(2,3,5,6-tetrahydroimidazo[2,1-b]thiazol-6-yl) formanilide dihydrochloride]	–	–	–	–	–	–	inhibition in vivo at 40 mg/kg (Nematospiroides dubius; [1]): 99%; inhibition in vivo at 60 mg/kg (Nematospiroides dubius; [1]): 100%
